# Active and inactive are the calls of the source.
# Assays:
# [1] = target: T1, DNA repair and recombination protein RAD54-like (Homo sapiens, UniProt Q92698); experiment: RAD54 Holliday junction migration blockers – biochemical, fluorescence, cherry-picked samples, dose series, confirmation (AID 651657); format: functional
# T1 sequence (Q92698 whole entry): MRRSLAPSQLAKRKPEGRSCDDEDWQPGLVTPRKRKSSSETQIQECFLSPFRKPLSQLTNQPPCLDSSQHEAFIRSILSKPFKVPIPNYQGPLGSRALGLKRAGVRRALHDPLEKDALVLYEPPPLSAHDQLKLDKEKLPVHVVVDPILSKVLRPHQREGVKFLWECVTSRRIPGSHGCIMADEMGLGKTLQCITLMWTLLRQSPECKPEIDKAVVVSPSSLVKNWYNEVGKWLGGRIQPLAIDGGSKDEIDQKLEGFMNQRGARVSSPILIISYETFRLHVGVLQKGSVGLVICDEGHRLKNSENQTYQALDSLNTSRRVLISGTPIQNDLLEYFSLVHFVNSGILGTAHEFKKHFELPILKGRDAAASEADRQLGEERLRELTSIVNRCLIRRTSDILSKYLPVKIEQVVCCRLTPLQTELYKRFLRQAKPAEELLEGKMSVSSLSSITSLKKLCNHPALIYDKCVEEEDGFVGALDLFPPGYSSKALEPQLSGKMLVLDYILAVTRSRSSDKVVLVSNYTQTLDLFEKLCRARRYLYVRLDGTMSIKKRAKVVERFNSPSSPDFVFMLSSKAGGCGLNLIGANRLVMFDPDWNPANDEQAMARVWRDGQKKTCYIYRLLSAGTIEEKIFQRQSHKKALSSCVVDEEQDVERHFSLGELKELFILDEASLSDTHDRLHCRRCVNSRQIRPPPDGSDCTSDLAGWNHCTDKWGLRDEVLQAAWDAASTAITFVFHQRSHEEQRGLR
# [2] = target: Paired box protein Pax-8 (Homo sapiens, UniProt Q06710); experiment: PAX8 transcriptional activity inhibition in RMG-I – RMG-I cells, luciferase, cherry-pick, dose response (AID 687027); format: functional, cell-based;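 note: luciferase reporter driven by Pax8 target thyroperoxidase promoter measured by SteadyGlo luminescence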
# Chain of Paired box protein Pax-8 (Q06710 whole entry): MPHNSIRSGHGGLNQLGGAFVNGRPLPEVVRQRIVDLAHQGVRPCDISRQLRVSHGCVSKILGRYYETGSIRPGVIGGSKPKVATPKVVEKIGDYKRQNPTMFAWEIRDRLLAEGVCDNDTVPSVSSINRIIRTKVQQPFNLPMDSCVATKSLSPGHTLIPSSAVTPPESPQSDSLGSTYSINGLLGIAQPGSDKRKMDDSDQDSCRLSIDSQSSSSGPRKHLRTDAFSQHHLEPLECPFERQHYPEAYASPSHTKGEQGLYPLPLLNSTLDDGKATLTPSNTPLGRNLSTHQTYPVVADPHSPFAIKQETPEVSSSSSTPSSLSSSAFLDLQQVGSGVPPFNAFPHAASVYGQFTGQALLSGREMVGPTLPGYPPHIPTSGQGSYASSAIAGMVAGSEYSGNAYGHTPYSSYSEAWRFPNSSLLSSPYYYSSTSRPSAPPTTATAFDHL
# [3] = Trypanosoma cruzi growth suppression in host cells – NIH3T3 host cells, beta-gal luminescence, confirmation (AID 2044); format: functional, cell-based;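 note: intracellular parasites grown in NIH/3T3 mouse fibroblasts as host cells; luminescent beta-galactosidase reporter signal from transgenic T. cruzi replicating inside host cells; inhibitors lower the luminescence signal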
# [4] = tested on: INS1; experiment: INS-1E survival protection against cytokine death – cell-based, luminescence, retest, dose response (AID 449756); format: functional; conditions: Rattus norvegicus;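 note: cell death triggered by IL-1 beta plus TNF-alpha plus IFN-gamma mixture; protective hits raise ATP signal compared with cytokine alone wells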
# [5] = target: T2, DNA repair protein RAD52 homolog (Homo sapiens, UniProt P43351); format: functional, biochemical
# T2 sequence (P43351 whole entry): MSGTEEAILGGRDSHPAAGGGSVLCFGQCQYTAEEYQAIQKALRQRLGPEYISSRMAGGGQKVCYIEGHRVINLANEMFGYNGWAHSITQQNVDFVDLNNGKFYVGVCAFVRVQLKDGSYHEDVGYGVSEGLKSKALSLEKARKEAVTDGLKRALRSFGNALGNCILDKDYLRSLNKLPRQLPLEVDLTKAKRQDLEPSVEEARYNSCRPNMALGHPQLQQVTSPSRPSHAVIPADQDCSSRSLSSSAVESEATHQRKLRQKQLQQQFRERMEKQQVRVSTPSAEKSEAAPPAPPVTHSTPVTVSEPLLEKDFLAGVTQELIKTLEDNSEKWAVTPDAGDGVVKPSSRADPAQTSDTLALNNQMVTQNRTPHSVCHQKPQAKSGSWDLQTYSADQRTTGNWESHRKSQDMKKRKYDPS
# [6] = target: T3, CAAX prenyl protease 2 (Homo sapiens, UniProt Q9Y256); experiment: inhibition of Ras-converting CAAX protease Rce1 – biochemical, yeast membranes, quenched-peptide fluorescence, cherry-pick, dose response (AID 588849)
# T3 sequence (Q9Y256 whole entry): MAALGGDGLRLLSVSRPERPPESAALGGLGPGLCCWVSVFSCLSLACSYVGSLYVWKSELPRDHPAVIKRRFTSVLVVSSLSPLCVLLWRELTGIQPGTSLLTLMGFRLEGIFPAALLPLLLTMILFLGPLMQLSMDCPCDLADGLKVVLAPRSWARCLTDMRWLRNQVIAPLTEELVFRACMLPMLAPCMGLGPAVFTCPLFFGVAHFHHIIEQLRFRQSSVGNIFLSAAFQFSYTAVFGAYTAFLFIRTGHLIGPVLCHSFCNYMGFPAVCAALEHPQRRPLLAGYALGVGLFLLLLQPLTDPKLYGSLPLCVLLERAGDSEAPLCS
# [7] = non-specific 3'UTR reporter inhibition in Clone20-Shn3RL – cell-based, Renilla luciferase, cherry-picked, counter-screen for Shn3 inhibitor project, dose response (AID 624133); format: functional
# [8] = NIH3T3 cell viability loss – ATP luminescence, mouse fibroblasts, counter-screen, dose response (AID 2010); format: functional, cell-based;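 note: cells exposed to compound for about 90 hours before reading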
# [9] = loss of viability in HepG2 cells – cell-based, CellTiter-Glo, cherry-picked, cytotoxicity control for Shn3 inhibitor project, dose response (AID 624134); format: functional
# [10] = target: T4, CAAX prenyl protease 2 (Saccharomyces cerevisiae S288c, UniProt Q03530); format: biochemical
# T4 sequence (Q03530 whole entry): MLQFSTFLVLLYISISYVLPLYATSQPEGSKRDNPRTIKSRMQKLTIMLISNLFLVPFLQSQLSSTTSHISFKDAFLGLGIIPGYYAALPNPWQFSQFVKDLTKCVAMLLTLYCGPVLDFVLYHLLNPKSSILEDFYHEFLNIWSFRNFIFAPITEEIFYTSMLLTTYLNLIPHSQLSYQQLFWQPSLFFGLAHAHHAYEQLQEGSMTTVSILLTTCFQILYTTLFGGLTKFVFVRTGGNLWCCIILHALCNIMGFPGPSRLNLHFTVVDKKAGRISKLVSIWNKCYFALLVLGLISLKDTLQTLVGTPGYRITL
# [11] = reduction of Shn3 3'UTR-driven luciferase in osteoblasts – cell-based, Clone20 osteoblasts, firefly luciferase, cherry-picked, dose response (AID 624132); format: functional;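 note: firefly luciferase luminescence from reporter carrying the Shn3 3'UTR in osteoblasts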
# [12] = nonselective StAR promoter luciferase inhibitors – cell-based, luminescence, luciferase reporter, counter-screen for LRH-1 inverse agonist project, dose response (AID 651969); format: functional
# [13] = cells; format: functional, cell-based
# [14] = cells; format: functional, cell-based; remark: listed apart in the source
# [15] = target: Steroidogenic factor 1 (Homo sapiens, UniProt Q13285); experiment: Counterscreen for inverse agonists of the liver receptor homolog-1 (LRH-1; NR5A2): Luminescence-based cell-based high throughput dose response assay to identify inverse agonists of the Steroidogenic Factor 1 Nuclear Receptor (SF1; NR5A1).; format: functional
# Chain of Steroidogenic factor 1 (Q13285 whole entry): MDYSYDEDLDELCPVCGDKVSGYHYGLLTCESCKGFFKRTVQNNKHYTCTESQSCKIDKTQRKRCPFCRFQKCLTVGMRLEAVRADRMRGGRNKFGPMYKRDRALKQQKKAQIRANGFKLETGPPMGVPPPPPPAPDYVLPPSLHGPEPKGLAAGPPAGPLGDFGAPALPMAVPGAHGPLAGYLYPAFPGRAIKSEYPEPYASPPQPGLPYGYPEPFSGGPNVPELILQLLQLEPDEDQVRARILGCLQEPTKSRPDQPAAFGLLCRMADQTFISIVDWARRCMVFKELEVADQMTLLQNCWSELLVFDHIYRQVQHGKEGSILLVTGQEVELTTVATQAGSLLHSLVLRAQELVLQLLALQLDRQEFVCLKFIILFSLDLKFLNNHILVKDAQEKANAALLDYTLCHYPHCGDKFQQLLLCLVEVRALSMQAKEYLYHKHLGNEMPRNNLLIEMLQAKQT
# [16] = target: Nuclear receptor subfamily 5 group A member 2 (Homo sapiens, UniProt O00482); format: functional, cell-based;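 note: HEK293T cells transfected with LRH-1 and a StAR promoter luciferase reporter; potency for inhibitors that lower LRH-1 driven reporter light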
# Chain of Nuclear receptor subfamily 5 group A member 2 (O00482 whole entry): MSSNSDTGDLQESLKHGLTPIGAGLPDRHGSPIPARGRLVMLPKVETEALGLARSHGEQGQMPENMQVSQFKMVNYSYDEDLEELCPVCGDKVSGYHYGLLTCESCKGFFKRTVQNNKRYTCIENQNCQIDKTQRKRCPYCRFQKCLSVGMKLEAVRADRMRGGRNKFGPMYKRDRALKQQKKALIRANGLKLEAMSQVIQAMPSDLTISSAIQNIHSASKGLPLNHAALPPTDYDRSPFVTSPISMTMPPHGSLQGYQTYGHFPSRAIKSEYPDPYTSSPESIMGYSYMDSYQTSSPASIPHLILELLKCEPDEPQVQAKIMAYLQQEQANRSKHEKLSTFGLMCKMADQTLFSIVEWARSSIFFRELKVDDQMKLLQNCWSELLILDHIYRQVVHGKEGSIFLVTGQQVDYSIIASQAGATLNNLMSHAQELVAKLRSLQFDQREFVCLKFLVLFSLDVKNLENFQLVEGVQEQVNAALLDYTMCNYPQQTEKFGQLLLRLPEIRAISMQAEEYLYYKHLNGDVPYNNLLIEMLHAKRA
# [17] = target: T5, Heat shock factor protein 1 (Mus musculus, UniProt P38532); experiment: enhancement of HSF1-driven luciferase signal – cell-based, NIH3T3, luminescence, dose retest, confirmation (AID 435004); format: functional;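 note: stress induced by proteasome inhibitor MG132 added 30 min after compound; luciferase reporter driven by HSF1 response element in NIH3T3 cells; actives raise luminescence as potentiators of the MG132 stress response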
# T5 sequence (P38532 whole entry): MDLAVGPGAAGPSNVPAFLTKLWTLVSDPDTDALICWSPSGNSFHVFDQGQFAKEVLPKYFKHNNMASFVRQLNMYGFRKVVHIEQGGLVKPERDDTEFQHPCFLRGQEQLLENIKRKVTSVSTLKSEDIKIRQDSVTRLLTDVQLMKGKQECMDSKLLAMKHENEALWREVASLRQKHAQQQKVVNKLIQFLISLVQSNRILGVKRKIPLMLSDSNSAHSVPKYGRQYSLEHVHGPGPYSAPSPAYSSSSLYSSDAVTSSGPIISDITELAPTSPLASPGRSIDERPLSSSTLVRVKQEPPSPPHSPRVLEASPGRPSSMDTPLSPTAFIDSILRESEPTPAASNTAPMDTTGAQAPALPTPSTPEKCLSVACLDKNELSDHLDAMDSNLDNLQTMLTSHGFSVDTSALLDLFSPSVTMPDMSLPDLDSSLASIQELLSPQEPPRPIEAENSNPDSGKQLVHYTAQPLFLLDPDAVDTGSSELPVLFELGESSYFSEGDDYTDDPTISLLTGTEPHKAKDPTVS
# [18] = target: T6, Rac GTPase-activating protein 1 (Homo sapiens, UniProt Q9H0H5); experiment: blockers of MgcRacGAP-driven Rac1 GTP hydrolysis – biochemical, ADP Hunter fluorescence, primary and confirmatory, confirmation (AID 624330); format: functional
# T6 sequence (Q9H0H5 whole entry): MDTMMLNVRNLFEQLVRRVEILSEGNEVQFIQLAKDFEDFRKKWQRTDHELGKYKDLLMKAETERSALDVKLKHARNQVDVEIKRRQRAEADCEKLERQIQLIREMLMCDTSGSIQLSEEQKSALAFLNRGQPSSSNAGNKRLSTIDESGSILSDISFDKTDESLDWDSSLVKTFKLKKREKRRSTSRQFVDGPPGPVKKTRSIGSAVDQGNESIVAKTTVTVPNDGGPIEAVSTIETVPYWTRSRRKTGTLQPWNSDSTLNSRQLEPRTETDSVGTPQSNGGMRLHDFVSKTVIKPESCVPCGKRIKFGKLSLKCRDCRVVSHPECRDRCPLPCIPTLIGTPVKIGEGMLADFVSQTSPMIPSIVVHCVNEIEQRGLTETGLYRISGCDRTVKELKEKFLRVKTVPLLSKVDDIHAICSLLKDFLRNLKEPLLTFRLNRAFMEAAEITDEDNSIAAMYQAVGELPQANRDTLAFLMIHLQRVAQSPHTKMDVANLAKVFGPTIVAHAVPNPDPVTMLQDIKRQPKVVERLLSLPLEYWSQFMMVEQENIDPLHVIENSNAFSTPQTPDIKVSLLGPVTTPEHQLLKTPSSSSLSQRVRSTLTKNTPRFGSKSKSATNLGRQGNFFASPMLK
# [19] = viability loss in HeLa cells – cytotoxicity control for MgcRacGAP inhibitor project, dose response (AID 624300); format: functional
# [20] = general mammalian cell viability loss – inhibitor set, cherry-pick, set 2, cytotoxicity control for miR-122 modulator project, dose response (AID 720697); format: functional, cell-based
# [21] = Luminescence Cell-Based Dose Response HTS to Identify Inhibitors of 5'UTR Stem-Loop Driven Prion Protein mRNA Translation in H4 Neuroglioblastoma Cells. [Related pubchem assays: 1827 (Project Summary), 1813 (Primary HTS)]; format: functional
# [22] = luciferase reporter signal suppression in cells – H4 neuroglioma cells, luminescence, dose response (AID 1990); format: functional, cell-based
# [23] = activation of miR-122 Renilla sensor silencing – cell-based, Huh7 psiCHECK-miR122, Renilla luciferase, cherry-picked, dose response (AID 651956); format: functional;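 note: huh7 hepatoma cells stably carrying a psiCHECK-2 miR-122 sensor plasmid; renilla luciferase signal reporting endogenous miR-122 activity after 48 h compound exposure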
# [24] = alpha-synuclein stem-loop luciferase translation blockers – H4 neuroglioma cells, luminescence, confirmation (AID 1988); format: functional, cell-based
# [25] = A2780 cell killing – plate reader, dry powder samples, cytotoxicity control, dose response (AID 743046); format: functional, cell-based
smiles,measurement,setting,value
CCN(CC)CC(=O)Nc1cc(N(C)C)nc2ccccc12,AC50,[1],26.9 µM (active)
C[n+]1c2n(c3ccccc31)N=C(c1cc(C(C)(C)C)c(O)c(C(C)(C)C)c1)CS2,AC50,[2],0.906 µM (active)
same,EC50,[3],0.496 µM (active)
same,AC50,[4],0.452 µM (active)
same,AC50,[5],13.4 µM (active)
same,AC50,[6],> 100 µM (inactive)
same,AC50,[7],7.16 µM (active)
same,EC50,[8],> 60 µM (not active)
same,AC50,[9],13 µM (active)
same,AC50,[10],9.21 µM (active)
same,AC50,[11],5.92 µM (active)
COc1ccc(OCC(O)CN2CCC(CN3C(=O)c4cccc5cccc(c45)C3=O)CC2)cc1 (configuration not stated),AC50,[5],8.15 µM (active)
Cc1ccc2c(c1)c1nc3ccccc3nc1n2CCN1CCOCC1,AC50,[1],16.6 µM (active)
O=C1CCCN2N=C(SCC(=O)Nc3ccc(Br)cc3)SC2=N1,IC50,[12],35.9 µM (inactive)
same,EC50,[13],> 350 µM (not active)
same,EC50,[14],> 350 µM (not active)
same,IC50,[15],12 µM (inactive)
same,IC50,[16],71.6 µM (inactive)
same,EC50,[17],> 260 µM (inactive)
CC(C)N(CCNCC(O)COc1ccc(C(C)(C)c2ccccc2)cc1)C(C)C (configuration not stated),IC50,[18],204 µM (active)
same,CC50,[19],91.8 µM (active)
COc1ccc(C(O)(CC(C)C)C(CN2CCOCC2)c2ccccc2)cc1 (configuration not stated),AC50,[20],4.58 µM (active)
same,EC50,[21],> 120 µM (not active)
same,EC50,[22],10.6 µM (active)
same,AC50,[23],49 µM (active)
same,EC50,[24],10.2 µM (active)
CCn1c(=O)n(CC)c2cc(N3CCCC3)c(NC(=O)c3cccc(Cl)c3)cc21,CC50,[19],100 µM (active)
CCN1CCN(c2nc(Nc3ccc(NC(C)=O)cc3)nc(Nc3ccc(NC(C)=O)cc3)n2)CC1,AC50,[5],6.27 µM (active)
CCOc1ccc(NC(=O)CSc2nccn(-c3ccc4c(c3)OCCO4)c2=O)cc1,IC50,[12],35.9 µM (inactive)
same,IC50,[15],2.46 µM (active)
same,IC50,[16],2.49 µM (active)
OCCN1CCN(c2ncnc3sc(-c4ccccc4)cc23)CC1,EC50,[3],0.721 µM (active)
same,AC50,[1],24.8 µM (active)
same,EC50,[8],> 60 µM (not active)
Cn1cc(Cl)c(C(=O)OCC(=O)Nc2ccc(S(N)(=O)=O)cc2)n1,IC50,[12],35.9 µM (inactive)
same,IC50,[15],1.11 µM (active)
same,IC50,[16],0.45 µM (active)
C[C@@H]1CN([C@H](C)CO)C(=O)c2cc(-c3cncnc3)cnc2O[C@H]1CN(C)Cc1ccc(Oc2ccccc2)cc1,AC50,[23],25.7 µM (active)
Cc1noc(C)c1S(=O)(=O)Nc1ccc2c(c1)C(=O)N([C@@H](C)CO)C[C@H](C)[C@H](CN(C)C(=O)Nc1ccc(C(F)(F)F)cc1)OCCCC[C@H](C)O2,AC50,[25],4.83 µM (active)
same,AC50,[2],14.2 µM (active)
Cc1cc(-c2ccccc2)nc(N/N=C/c2ccc(O)cc2)n1,IC50,[18],18.2 µM (active)
same,CC50,[19],87 µM (active)

# From ChEMBL document CHEMBL1201862, “PubChem BioAssay data set” (2004)
